Reference: the kinase profiling compilation of Christmann-Franck et al. (2016)
Each block holds one compound with its values, some of them ahead of it.

Key:
Experiment in all cases: radiometric filter-binding kinase assay, Kinase HotSpot
Details in all cases: compound 0.5 µM; ATP 10 µM
ADRBK1 (human) = ADRBK1 (human) (UniProt P25098)
ADRBK2 (human) = ADRBK2 (human) (UniProt P35626)
AKT3 (human) = AKT3 (human) (UniProt Q9Y243)
BLK (human) = BLK (human) (UniProt P51451)
BTK (human) = BTK (human) (UniProt Q06187)
CAMK1D (human) = CAMK1D (human) (UniProt Q8IU85)
CDK2 CCNE1 (human) = CDK2 CCNE1 (human) (UniProt P24941+P24864)
CDK7 CCNH MNAT1 (human) = CDK7 CCNH MNAT1 (human) (UniProt P50613+P51948+P51946)
CDK9 CCNK (human) = CDK9 CCNK (human) (UniProt O75909+P50750)
CHUK (human) = CHUK (human) (UniProt O15111)
CSF1R (human) = CSF1R (human) (UniProt P07333)
DAPK3 (human) = DAPK3 (human) (UniProt O43293)
DYRK1A (human) = DYRK1A (human) (UniProt Q13627)
DYRK1B (human) = DYRK1B (human) (UniProt Q9Y463)
DYRK3 (human) = DYRK3 (human) (UniProt O43781)
EPHA2 (human) = EPHA2 (human) (UniProt P29317)
FES (human) = FES (human) (UniProt P07332)
FGFR2 (human) = FGFR2 (human) (UniProt P21802)
FLT1 (human) = FLT1 (human) (UniProt P17948)
[1] = target: JAK1 JH1 catalytic (human) (UniProt P23458)
KDR (human) = KDR (human) (UniProt P35968)
MAPK8 (human) = MAPK8 (human) (UniProt P45983)
MAPKAPK3 (human) = MAPKAPK3 (human) (UniProt Q16644)
MARK1 (human) = MARK1 (human) (UniProt Q9P0L2)
MYLK (human) = MYLK (human) (UniProt Q15746)
NEK2 (human) = NEK2 (human) (UniProt P51955)
NEK4 (human) = NEK4 (human) (UniProt P51957)
NTRK2 (human) = NTRK2 (human) (UniProt Q16620)
NUAK2 (human) = NUAK2 (human) (UniProt Q9H093)
PAK1 (human) = PAK1 (human) (UniProt Q13153)
PHKG1 (human) = PHKG1 (human) (UniProt Q16816)
PRKACA (human) = PRKACA (human) (UniProt P17612)
RPS6KA1 KD1 KD2 (human) = RPS6KA1 KD1 KD2 (human) (UniProt Q15418)
RPS6KA2 KD1 KD2 (human) = RPS6KA2 KD1 KD2 (human) (UniProt Q15349)
STK3 (human) = STK3 (human) (UniProt Q13188)
STK33 (human) = STK33 (human) (UniProt Q9BYT3)
TAOK3 (human) = TAOK3 (human) (UniProt Q9H2K8)
TEK (human) = TEK (human) (UniProt Q02763)
TGFBR1 (human) = TGFBR1 (human) (UniProt P36897)
TSSK1B (human) = TSSK1B (human) (UniProt Q9BXA7)
TXK (human) = TXK (human) (UniProt P42681)

Sequence of BTK (human) (Q06187 whole entry, looked up): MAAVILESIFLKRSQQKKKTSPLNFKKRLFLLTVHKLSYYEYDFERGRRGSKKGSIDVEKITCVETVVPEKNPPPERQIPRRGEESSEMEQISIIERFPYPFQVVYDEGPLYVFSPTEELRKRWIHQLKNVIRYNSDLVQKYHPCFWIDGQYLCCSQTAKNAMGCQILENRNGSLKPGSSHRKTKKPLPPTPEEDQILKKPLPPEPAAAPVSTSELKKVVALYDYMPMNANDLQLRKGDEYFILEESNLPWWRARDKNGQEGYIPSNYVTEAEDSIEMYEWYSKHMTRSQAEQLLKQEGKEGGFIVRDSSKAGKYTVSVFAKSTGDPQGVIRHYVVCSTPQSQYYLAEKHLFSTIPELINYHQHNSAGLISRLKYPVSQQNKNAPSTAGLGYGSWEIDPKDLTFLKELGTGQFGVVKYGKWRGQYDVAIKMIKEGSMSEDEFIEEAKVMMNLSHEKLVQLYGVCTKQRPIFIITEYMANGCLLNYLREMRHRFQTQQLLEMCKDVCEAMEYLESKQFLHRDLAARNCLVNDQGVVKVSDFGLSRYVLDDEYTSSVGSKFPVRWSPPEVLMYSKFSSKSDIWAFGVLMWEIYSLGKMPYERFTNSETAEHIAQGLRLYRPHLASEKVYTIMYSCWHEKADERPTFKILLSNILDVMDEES
Sequence of AKT3 (human) (Q9Y243 whole entry, looked up): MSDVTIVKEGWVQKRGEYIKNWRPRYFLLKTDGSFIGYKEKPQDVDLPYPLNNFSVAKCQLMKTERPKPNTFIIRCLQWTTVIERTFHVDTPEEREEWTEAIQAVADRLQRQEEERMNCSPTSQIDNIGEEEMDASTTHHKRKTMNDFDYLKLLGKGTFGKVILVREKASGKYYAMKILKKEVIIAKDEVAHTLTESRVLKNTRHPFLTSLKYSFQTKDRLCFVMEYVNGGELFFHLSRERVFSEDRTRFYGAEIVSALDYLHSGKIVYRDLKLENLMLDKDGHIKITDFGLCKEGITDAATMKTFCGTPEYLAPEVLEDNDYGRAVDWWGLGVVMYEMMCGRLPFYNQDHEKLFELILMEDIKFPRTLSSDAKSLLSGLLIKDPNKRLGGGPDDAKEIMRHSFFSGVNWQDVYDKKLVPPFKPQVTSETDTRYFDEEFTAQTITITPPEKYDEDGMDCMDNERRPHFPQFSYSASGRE
Sequence of STK33 (human) (Q9BYT3 whole entry, looked up): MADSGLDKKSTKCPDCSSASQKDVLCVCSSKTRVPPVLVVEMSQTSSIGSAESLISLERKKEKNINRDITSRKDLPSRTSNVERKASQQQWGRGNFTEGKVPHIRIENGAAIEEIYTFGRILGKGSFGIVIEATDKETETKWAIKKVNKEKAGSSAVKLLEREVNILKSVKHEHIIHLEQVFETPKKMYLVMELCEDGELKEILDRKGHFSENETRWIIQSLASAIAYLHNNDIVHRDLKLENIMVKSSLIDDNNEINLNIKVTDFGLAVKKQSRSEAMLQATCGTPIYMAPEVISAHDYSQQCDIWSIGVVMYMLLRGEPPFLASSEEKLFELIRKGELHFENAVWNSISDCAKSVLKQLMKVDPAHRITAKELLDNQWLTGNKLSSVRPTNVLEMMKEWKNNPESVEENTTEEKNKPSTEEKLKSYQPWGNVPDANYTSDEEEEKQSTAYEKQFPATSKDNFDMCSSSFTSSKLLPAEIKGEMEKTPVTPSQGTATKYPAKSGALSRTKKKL
Sequence of NUAK2 (human) (Q9H093 whole entry, looked up): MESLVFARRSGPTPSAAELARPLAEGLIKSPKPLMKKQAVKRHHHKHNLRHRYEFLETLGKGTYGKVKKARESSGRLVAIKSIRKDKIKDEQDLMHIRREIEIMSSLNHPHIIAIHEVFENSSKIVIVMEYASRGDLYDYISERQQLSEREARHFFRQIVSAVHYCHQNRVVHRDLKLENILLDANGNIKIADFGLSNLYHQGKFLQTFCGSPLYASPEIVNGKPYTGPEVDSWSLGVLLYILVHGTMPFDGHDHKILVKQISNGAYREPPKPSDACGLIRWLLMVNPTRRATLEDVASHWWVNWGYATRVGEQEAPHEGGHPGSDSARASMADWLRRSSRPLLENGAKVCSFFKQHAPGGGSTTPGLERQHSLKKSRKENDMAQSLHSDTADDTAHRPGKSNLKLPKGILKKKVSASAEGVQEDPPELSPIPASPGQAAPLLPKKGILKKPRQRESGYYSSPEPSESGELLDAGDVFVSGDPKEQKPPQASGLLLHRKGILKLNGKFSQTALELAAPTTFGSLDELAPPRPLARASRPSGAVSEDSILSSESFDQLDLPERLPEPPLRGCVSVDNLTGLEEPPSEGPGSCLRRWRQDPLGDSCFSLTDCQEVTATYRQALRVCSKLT
Sequence of DAPK3 (human) (O43293 whole entry, looked up): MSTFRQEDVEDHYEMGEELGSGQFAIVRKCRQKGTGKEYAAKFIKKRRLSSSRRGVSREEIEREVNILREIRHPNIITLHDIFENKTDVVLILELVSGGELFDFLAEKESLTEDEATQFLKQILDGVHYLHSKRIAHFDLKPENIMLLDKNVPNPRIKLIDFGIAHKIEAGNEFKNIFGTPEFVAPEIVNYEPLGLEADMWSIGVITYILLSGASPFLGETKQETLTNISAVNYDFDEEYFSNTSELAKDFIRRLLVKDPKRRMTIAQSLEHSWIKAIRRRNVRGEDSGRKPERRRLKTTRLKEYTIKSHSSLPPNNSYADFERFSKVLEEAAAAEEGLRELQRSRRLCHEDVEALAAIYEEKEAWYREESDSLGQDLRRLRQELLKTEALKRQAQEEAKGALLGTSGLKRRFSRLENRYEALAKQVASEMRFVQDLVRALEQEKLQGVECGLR
Sequence of CDK9 CCNK (human) (O75909 whole entry, looked up): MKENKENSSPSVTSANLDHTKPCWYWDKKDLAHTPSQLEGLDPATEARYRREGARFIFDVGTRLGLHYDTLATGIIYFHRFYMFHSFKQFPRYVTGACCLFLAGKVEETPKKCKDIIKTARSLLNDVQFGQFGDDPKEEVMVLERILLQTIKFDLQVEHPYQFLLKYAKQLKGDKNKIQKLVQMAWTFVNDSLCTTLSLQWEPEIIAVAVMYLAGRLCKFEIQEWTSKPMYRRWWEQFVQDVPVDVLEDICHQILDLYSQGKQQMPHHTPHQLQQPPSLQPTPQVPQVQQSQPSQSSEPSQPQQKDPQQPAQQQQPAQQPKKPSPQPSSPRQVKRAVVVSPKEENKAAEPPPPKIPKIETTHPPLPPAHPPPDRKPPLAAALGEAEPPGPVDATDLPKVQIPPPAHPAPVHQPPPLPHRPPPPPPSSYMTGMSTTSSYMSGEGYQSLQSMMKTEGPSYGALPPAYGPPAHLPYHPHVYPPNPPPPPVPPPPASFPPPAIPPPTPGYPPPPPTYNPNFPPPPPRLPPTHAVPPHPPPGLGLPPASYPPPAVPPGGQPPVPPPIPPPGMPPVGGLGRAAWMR
Sequence of CDK9 CCNK (human) (P50750 whole entry, looked up): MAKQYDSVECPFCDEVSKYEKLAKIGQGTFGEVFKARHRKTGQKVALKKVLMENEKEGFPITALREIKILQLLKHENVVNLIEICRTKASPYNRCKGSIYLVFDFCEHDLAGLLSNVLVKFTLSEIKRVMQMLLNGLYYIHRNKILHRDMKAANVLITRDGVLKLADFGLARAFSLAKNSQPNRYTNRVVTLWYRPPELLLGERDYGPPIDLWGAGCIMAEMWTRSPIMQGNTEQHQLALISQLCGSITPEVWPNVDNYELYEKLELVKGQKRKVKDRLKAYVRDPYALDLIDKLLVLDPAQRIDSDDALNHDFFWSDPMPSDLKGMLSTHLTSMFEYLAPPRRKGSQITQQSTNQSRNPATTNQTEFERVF
Sequence of DYRK1B (human) (Q9Y463 whole entry, looked up): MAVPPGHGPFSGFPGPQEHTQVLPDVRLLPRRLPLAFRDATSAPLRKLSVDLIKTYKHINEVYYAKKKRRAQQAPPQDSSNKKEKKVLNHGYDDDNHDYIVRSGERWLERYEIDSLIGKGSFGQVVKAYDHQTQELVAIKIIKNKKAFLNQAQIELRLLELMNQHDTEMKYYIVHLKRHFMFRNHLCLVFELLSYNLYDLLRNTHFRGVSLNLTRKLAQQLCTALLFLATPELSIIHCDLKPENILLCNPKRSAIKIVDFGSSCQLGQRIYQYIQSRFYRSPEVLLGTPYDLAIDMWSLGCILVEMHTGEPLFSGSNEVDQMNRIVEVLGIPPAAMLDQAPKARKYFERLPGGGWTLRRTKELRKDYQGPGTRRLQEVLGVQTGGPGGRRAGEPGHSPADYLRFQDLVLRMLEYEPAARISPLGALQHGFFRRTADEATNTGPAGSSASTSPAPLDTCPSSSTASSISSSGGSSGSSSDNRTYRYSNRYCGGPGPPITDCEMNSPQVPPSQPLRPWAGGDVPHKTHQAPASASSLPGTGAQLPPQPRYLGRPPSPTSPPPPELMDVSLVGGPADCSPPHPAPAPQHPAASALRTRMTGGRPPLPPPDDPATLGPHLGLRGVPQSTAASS
Sequence of PHKG1 (human) (Q16816 whole entry, looked up): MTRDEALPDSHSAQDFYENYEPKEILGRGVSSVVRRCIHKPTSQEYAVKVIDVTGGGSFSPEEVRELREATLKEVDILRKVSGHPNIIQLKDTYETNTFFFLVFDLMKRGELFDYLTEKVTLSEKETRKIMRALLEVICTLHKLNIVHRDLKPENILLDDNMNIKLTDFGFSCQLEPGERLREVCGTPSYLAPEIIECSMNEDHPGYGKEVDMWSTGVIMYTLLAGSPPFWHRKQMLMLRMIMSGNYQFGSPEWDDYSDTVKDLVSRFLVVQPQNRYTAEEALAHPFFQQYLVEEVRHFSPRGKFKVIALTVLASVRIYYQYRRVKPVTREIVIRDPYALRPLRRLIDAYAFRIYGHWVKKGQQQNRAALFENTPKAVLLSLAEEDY

SMILES: Cc1cc(Nc2nc(-c3ccccc3)nc3ccccc23)n[nH]1
residual activity (ADRBK1 (human)): 106% | residual activity (ADRBK2 (human)): 106% | residual activity (AKT3 (human)): 95.5% | residual activity (BLK (human)): 56.2% | residual activity (BTK (human)): 43.4% | residual activity (CAMK1D (human)): 85.4% | residual activity (CDK2 CCNE1 (human)): 75.4% | residual activity (CDK7 CCNH MNAT1 (human)): 73.3% | residual activity (CDK9 CCNK (human)): 89.8% | residual activity (CHUK (human)): 96.5% | residual activity (CSF1R (human)): 33.1% | residual activity (DAPK3 (human)): 57.5% | residual activity (DYRK1A (human)): 104% | residual activity (DYRK1B (human)): 90.8% | residual activity (DYRK3 (human)): 81.9% | residual activity (EPHA2 (human)): 94.8% | residual activity (FES (human)): 94.7% | residual activity (FGFR2 (human)): 83.7% | residual activity (FLT1 (human)): 78.7% | residual activity [1]: 83.7% | residual activity (KDR (human)): 36.5% | residual activity (MAPK8 (human)): 92% | residual activity (MAPKAPK3 (human)): 81% | residual activity (MARK1 (human)): 93.7% | residual activity (MYLK (human)): 60.2% | residual activity (NEK2 (human)): 99.3% | residual activity (NEK4 (human)): 95% | residual activity (NTRK2 (human)): 4.37% | residual activity (NUAK2 (human)): 71.1% | residual activity (PAK1 (human)): 79.5% | residual activity (PHKG1 (human)): 71.7% | residual activity (PRKACA (human)): 97.2% | residual activity (RPS6KA1 KD1 KD2 (human)): 58% | residual activity (RPS6KA2 KD1 KD2 (human)): 50.7% | residual activity (STK3 (human)): 58.5% | residual activity (STK33 (human)): 44.7% | residual activity (TAOK3 (human)): 86.9% | residual activity (TEK (human)): 104% | residual activity (TGFBR1 (human)): 97.1% | residual activity (TSSK1B (human)): 76.7% | residual activity (TXK (human)): 45.3%

residual activity (ADRBK1 (human)): 103% | residual activity (ADRBK2 (human)): 99.1% | residual activity (AKT3 (human)): 105% | residual activity (BLK (human)): 102% | residual activity (BTK (human)): 88.8% | residual activity (CAMK1D (human)): 108% | residual activity (CDK2 CCNE1 (human)): 82.7% | residual activity (CDK7 CCNH MNAT1 (human)): 93.2% | residual activity (CDK9 CCNK (human)): 26.6% | residual activity (CHUK (human)): 88.6% | residual activity (CSF1R (human)): 99.2% | residual activity (DAPK3 (human)): 109% | residual activity (DYRK1A (human)): 52.7% | residual activity (DYRK1B (human)): 53.2% | residual activity (DYRK3 (human)): 103% | residual activity (EPHA2 (human)): 103% | residual activity (FES (human)): 92.8% | residual activity (FGFR2 (human)): 102% | residual activity (FLT1 (human)): 74% | residual activity [1]: 113% | residual activity (KDR (human)): 99.7% | residual activity (MAPK8 (human)): 87.6% | residual activity (MAPKAPK3 (human)): 102% | residual activity (MARK1 (human)): 97.6% | residual activity (MYLK (human)): 97.9% | residual activity (NEK2 (human)): 87.8% | residual activity (NEK4 (human)): 89.1% | residual activity (NTRK2 (human)): 93.2% | residual activity (NUAK2 (human)): 72.5% | residual activity (PAK1 (human)): 96.5% | residual activity (PHKG1 (human)): 89% | residual activity (PRKACA (human)): 103% | residual activity (RPS6KA1 KD1 KD2 (human)): 79% | residual activity (RPS6KA2 KD1 KD2 (human)): 89.6% | residual activity (STK3 (human)): 98.9% | residual activity (STK33 (human)): 55.4% | residual activity (TAOK3 (human)): 87.5% | residual activity (TEK (human)): 97.5% | residual activity (TGFBR1 (human)): 97.8% | residual activity (TSSK1B (human)): 99% | residual activity (TXK (human)): 49.3%
SMILES: N#C/C(=C1/Nc2ccccc2S1)c1ccnc(NCCc2cccnc2)n1

SMILES: CCCCc1c(-c2ccc(O)cc2)[nH]c2nccnc12
residual activity (ADRBK1 (human)): 76.5% | residual activity (ADRBK2 (human)): 96.2% | residual activity (AKT3 (human)): 95.8% | residual activity (BLK (human)): 85% | residual activity (BTK (human)): 61.7% | residual activity (CAMK1D (human)): 96.9% | residual activity (CDK2 CCNE1 (human)): 29.9% | residual activity (CDK7 CCNH MNAT1 (human)): 88.2% | residual activity (CDK9 CCNK (human)): 42.8% | residual activity (CHUK (human)): 77.6% | residual activity (CSF1R (human)): 38.4% | residual activity (DAPK3 (human)): 94.9% | residual activity (DYRK1A (human)): 92.9% | residual activity (DYRK1B (human)): 73.3% | residual activity (DYRK3 (human)): 90.9% | residual activity (EPHA2 (human)): 81.7% | residual activity (FES (human)): 64.5% | residual activity (FGFR2 (human)): 94.5% | residual activity (FLT1 (human)): 86.3% | residual activity [1]: 53.8% | residual activity (KDR (human)): 89.8% | residual activity (MAPK8 (human)): 81.9% | residual activity (MAPKAPK3 (human)): 92.8% | residual activity (MARK1 (human)): 91.9% | residual activity (MYLK (human)): 101% | residual activity (NEK2 (human)): 106% | residual activity (NEK4 (human)): 82.2% | residual activity (NTRK2 (human)): 73.7% | residual activity (NUAK2 (human)): 64.8% | residual activity (PAK1 (human)): 81.4% | residual activity (PHKG1 (human)): 86.7% | residual activity (PRKACA (human)): 89.7% | residual activity (RPS6KA1 KD1 KD2 (human)): 82.6% | residual activity (RPS6KA2 KD1 KD2 (human)): 87.7% | residual activity (STK3 (human)): 76.6% | residual activity (STK33 (human)): 80.8% | residual activity (TAOK3 (human)): 82.5% | residual activity (TEK (human)): 97% | residual activity (TGFBR1 (human)): 100% | residual activity (TSSK1B (human)): 62% | residual activity (TXK (human)): 65%

SMILES: CCOc1cc2ncnc(Nc3cccc(Br)c3)c2cc1OCC
residual activity (ADRBK1 (human)): 95.4% | residual activity (ADRBK2 (human)): 93.8% | residual activity (AKT3 (human)): 104% | residual activity (BLK (human)): 74.9% | residual activity (BTK (human)): 72.7% | residual activity (CAMK1D (human)): 102% | residual activity (CDK2 CCNE1 (human)): 94.4% | residual activity (CDK7 CCNH MNAT1 (human)): 93% | residual activity (CDK9 CCNK (human)): 102% | residual activity (CHUK (human)): 105% | residual activity (CSF1R (human)): 87.6% | residual activity (DAPK3 (human)): 103% | residual activity (DYRK1A (human)): 98.7% | residual activity (DYRK1B (human)): 103% | residual activity (DYRK3 (human)): 98.5% | residual activity (EPHA2 (human)): 80.3% | residual activity (FES (human)): 96.8% | residual activity (FGFR2 (human)): 96.3% | residual activity (FLT1 (human)): 85% | residual activity [1]: 102% | residual activity (KDR (human)): 92% | residual activity (MAPK8 (human)): 90.7% | residual activity (MAPKAPK3 (human)): 87.4% | residual activity (MARK1 (human)): 90.3% | residual activity (MYLK (human)): 89.4% | residual activity (NEK2 (human)): 98.7% | residual activity (NEK4 (human)): 84.8% | residual activity (NTRK2 (human)): 105% | residual activity (NUAK2 (human)): 89.7% | residual activity (PAK1 (human)): 95.2% | residual activity (PHKG1 (human)): 84.2% | residual activity (PRKACA (human)): 98.9% | residual activity (RPS6KA1 KD1 KD2 (human)): 82.8% | residual activity (RPS6KA2 KD1 KD2 (human)): 74.5% | residual activity (STK3 (human)): 99.5% | residual activity (STK33 (human)): 93.9% | residual activity (TAOK3 (human)): 96.2% | residual activity (TEK (human)): 96.4% | residual activity (TGFBR1 (human)): 96.9% | residual activity (TSSK1B (human)): 92.9% | residual activity (TXK (human)): 80.2%

SMILES: COc1cc2c(cc1OC)-c1[nH]nc(Nc3cccc(F)c3)c1C2
residual activity (ADRBK1 (human)): 93% | residual activity (ADRBK2 (human)): 98.4% | residual activity (AKT3 (human)): 96.1% | residual activity (BLK (human)): 74.2% | residual activity (BTK (human)): 40.8% | residual activity (CAMK1D (human)): 89.8% | residual activity (CDK2 CCNE1 (human)): 88.6% | residual activity (CDK7 CCNH MNAT1 (human)): 101% | residual activity (CDK9 CCNK (human)): 91.9% | residual activity (CHUK (human)): 91.4% | residual activity (CSF1R (human)): 20% | residual activity (DAPK3 (human)): 100% | residual activity (DYRK1A (human)): 90.3% | residual activity (DYRK1B (human)): 102% | residual activity (DYRK3 (human)): 84.4% | residual activity (EPHA2 (human)): 93.8% | residual activity (FES (human)): 95.6% | residual activity (FGFR2 (human)): 100% | residual activity (FLT1 (human)): 82.6% | residual activity [1]: 97.6% | residual activity (KDR (human)): 98.7% | residual activity (MAPK8 (human)): 85.2% | residual activity (MAPKAPK3 (human)): 90.8% | residual activity (MARK1 (human)): 96.1% | residual activity (MYLK (human)): 102% | residual activity (NEK2 (human)): 93% | residual activity (NEK4 (human)): 101% | residual activity (NTRK2 (human)): 102% | residual activity (NUAK2 (human)): 94.6% | residual activity (PAK1 (human)): 96.9% | residual activity (PHKG1 (human)): 89% | residual activity (PRKACA (human)): 92.8% | residual activity (RPS6KA1 KD1 KD2 (human)): 84.1% | residual activity (RPS6KA2 KD1 KD2 (human)): 91.4% | residual activity (STK3 (human)): 93% | residual activity (STK33 (human)): 99.5% | residual activity (TAOK3 (human)): 91.5% | residual activity (TEK (human)): 92.5% | residual activity (TGFBR1 (human)): 101% | residual activity (TSSK1B (human)): 71.7% | residual activity (TXK (human)): 60.6%
